Our source for the IC50 values is ChEMBL document CHEMBL1127199, “Design of C-terminal peptide antagonists of endothelin: structure-activity relationships of ET-[1621, D-His16]” (Bioorg Med Chem Lett, 1993).

For test [1], the target named is T1, Endothelin receptor type B (Rattus norvegicus, UniProt P21451).
T1 sequence (P21451 whole entry): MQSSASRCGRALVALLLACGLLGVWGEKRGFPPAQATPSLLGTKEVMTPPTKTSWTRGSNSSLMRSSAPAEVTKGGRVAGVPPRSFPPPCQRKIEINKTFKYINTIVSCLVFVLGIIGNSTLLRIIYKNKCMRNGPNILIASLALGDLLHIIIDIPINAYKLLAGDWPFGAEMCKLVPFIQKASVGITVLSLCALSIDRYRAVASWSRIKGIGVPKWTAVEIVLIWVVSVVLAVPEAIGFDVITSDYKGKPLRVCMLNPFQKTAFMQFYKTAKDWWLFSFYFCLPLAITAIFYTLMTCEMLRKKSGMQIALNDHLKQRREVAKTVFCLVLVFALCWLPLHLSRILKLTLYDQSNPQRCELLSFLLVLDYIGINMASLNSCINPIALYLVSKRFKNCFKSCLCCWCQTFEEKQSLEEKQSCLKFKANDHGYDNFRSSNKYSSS
Briefly: Displacement of [125I]ET1 from Endothelin B receptor of rat cerebellum. It is filed as tissue-based. On the technique in general: In a radioligand displacement assay an active substance lowers the binding of a labelled ligand.

Test [2] has as its target Endothelin A receptor (Oryctolagus cuniculus). Briefly: Displacement of [125I]-ET-1 from Endothelin A receptor of rabbit renal artery vascular smooth muscle cells.
Another test is filed under the species Oryctolagus cuniculus. Briefly: Compound was tested for its inhibition of ET-1 induced arachidonic acid accumulation in rabbit renal artery vascular smooth muscle cells. It is filed as functional.

SMILES strings stand for the structures. Where a SMILES comes first, the peptide text is derived from it. [ ]: non-standard residue; d: D form.

On to `CC[C@H](C)[C@H](NC(=O)[C@H](CC(=O)O)NC(=O)[C@H](CC(C)C)NC(=O)[C@H](Cc1c[nH]cn1)NC(C)=O)C(=O)N[C@H](C(=O)N[C@@H](Cc1c[nH]c2ccccc12)C(=O)O)[C@@H](C)CC` (Ac-HLDIIW-OH), for which the IC50 (as a rule, the concentration that gives 50% inhibition) in test [1] was above 50000 nM.

With `CC[C@H](C)[C@H](NC(=O)[C@H](CC(=O)O)NC(=O)[C@@H](Cc1ccccc1)NC(C)=O)C(=O)N[C@H](C(=O)N[C@@H](Cc1c[nH]c2ccccc12)C(=O)O)[C@@H](C)CC` (Ac-[dF]DIIW-OH), the IC50 in test [2] stood at 9100 nM.

With `CC[C@H](C)[C@H](NC(=O)[C@H](CC(=O)O)NC(=O)[C@H](CCC(=O)O)NC(=O)[C@@H](Cc1ccccc1)NC(C)=O)C(=O)N[C@H](C(=O)N[C@@H](Cc1c[nH]c2ccccc12)C(=O)O)[C@@H](C)CC` (Ac-[dF]EDIIW-OH), inhibition in the test filed under Oryctolagus cuniculus was half-maximal at 600 nM (IC50).

`CC[C@H](C)[C@H](NC(=O)[C@H](CC(=O)O)NC(=O)[C@H](Cc1ccccc1)NC(=O)[C@@H](Cc1ccccc1)NC(C)=O)C(=O)N[C@H](C(=O)N[C@@H](Cc1c[nH]c2ccccc12)C(=O)O)[C@@H](C)CC` (Ac-[dF]FDIIW-OH) displayed an IC50 in test [1] of 50 nM.

`CC[C@H](C)[C@H](NC(=O)[C@H](CC(=O)O)NC(=O)[C@H](CC(C)C)NC(=O)[C@@H](Cc1ccccc1)NC(C)=O)C(=O)N[C@H](C(=O)N[C@@H](Cc1c[nH]c2ccccc12)C(=O)O)[C@@H](C)CC` (Ac-[dF]LDIIW-OH): the IC50 in test [1] was determined as 140 nM.

With `CC[C@H](C)[C@H](NC(=O)[C@H](CC(=O)O)NC(=O)[C@@H](Cc1ccccc1)NC(=O)[C@@H](Cc1ccccc1)NC(C)=O)C(=O)N[C@H](C(=O)N[C@@H](Cc1c[nH]c2ccccc12)C(=O)O)[C@@H](C)CC` (Ac-[dF][dF]DIIW-OH), the IC50 came out at 30 nM in test [1] and 1600 nM in the test listed under Oryctolagus cuniculus.
